Source: patent US20260224577A1, “METHODS OF TREATING HEART FAILURE WITH VIBEGRON” (SUMITOMO PHARMA CO., LTD., priority 2021, published 2026)

Assays:
[1] = tested on: β3-AR over β2-AR and β1-AR; conditions: cell based in vitro assays; cited from earlier work
[2] = target: T1, β1-adrenergic receptor (Homo sapiens, UniProt P08588); assay: Functional cellular cAMP (HTRF) assay, CHO cells expressing β1-ARs; assay type: cell-based; conditions: relative to isoproterenol
T1 construct: expressed in transfected cells; host or cells: CHO
T1 sequence (P08588 whole entry): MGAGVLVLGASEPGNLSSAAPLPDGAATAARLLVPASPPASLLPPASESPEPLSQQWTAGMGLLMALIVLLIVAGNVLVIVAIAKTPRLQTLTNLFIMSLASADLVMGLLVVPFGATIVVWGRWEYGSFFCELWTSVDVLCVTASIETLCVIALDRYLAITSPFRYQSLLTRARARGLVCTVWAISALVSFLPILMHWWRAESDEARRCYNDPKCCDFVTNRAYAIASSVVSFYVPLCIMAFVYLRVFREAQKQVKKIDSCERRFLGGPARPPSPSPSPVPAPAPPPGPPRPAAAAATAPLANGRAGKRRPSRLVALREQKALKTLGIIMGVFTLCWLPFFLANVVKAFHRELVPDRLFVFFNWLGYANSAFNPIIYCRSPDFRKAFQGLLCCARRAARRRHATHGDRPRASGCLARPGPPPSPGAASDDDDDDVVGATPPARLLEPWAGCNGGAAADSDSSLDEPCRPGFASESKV
Description: (§1) The potency and maximal effect of vibegron and mirabegron for β3-adrenergic receptors and the selectivity for each […] receptor were determined. Functional cellular assays for vibegron and mirabegron activity were performed using Chinese hamster ovary (CHO) cells expressing β1- or β2-ARs and human embryonic kidney (HEK) 293 cells expressing β3-ARs. Cells were incubated with vibegron, mirabegron, or the appropriate control (isoproterenol for β1 and β3, procaterol for β2). Responses were quantified using homogeneous time-resolved fluorescence of cyclic adenosine monophosphate. Half-maximal effective concentration (EC50) and maximum response (Emax) values were determined by nonlinear least-squares regression analysis.

[3] = tested on: mice with induced myocardial infarction; assay: Post-MI chronic heart failure in mice, heart histology (Mason's trichrome); assay type: in vivo, mouse; conditions: for Average % Infarcted Myocardium / Average Left Ventricle Lumen Area: Week 6
Text: (§2) Myocardial infarction was induced in 10-12 week C57B/6 wild-type mice and after 2 weeks echo cardiograms were used to assess the MI severity in each mouse. Mice were randomized for treatment based on similarity and severity of the induced infarct. The mice were started with either vibegron or vehicle (1-3 doses) administered by continuous infusion using 2 week minipumps (Azlet Corp.) that were filled with the appropriate dose and implanted subcutaneously on the back of each animal in the region of the scapula. The minipumps were replaced with new minipumps in the same location at the 2 week time point and dosed for 4 weeks in total. Cardiac function was assessed by echocardiography (Echo) at 0, 2, 4, and 6 weeks. Some mice were subjected to terminal catheterization to measure hemodynamic pressures and adrenergic responsiveness. At the end of the 4 week treatment period (i.e., 6 weeks after MI was induced), cardiac function was measured, mice were sacrificed for histology of the heart, and terminal blood was collected to confirm the serum concentration of vibegron.
(§3) • 1. Day 0 (after 1-2 weeks acclimation)—pre-surgery Echo • 2. Perform LAD Ligation (MI) or Sham procedure • 3. Day 14—Echo and randomly assign groups • 4. Day 14—begin administration of vehicle and drug for 4 weeks • 5. Day 28—Echo (operator blinded to groups)—change pumps for another 2 week dosing • 6. Day 42—Echo (operator blinded to groups) • 7. Day 42—Some were used for hemodynamics and ISO dose response and all animals sacrificed. Some were used for histology and some for RNA/Protein analysis. Blood was also collected at the time of sacrifice to determine serum concentrations.
At the end of the study period, blood samples were processed for subsequent analysis of compound and decided biomarkers. At the end of the study, the heart was either preserved in formalin (for section, and staining) or snap frozen (for isolation of whole heart RNA, DNA and protein) as described above.
Histologies were obtained by sectioning the mouse hearts vertically in such a way that all four chambers were visible upon staining. The area of the left ventricle cavity was measured by staining with Mason's trichrome stain. The darker color indicates healthy myocardium and the lighter color indicates connective tissue, which is the largest component of infarcted myocardium.

[4] = target: T2, β3-adrenergic receptor (Homo sapiens, UniProt P13945); assay: Functional cellular cAMP (HTRF) assay, HEK293 cells expressing β3-ARs; assay type: cell-based
T2 construct: expressed in transfected cells; host or cells: HEK293
T2 sequence (P13945 whole entry): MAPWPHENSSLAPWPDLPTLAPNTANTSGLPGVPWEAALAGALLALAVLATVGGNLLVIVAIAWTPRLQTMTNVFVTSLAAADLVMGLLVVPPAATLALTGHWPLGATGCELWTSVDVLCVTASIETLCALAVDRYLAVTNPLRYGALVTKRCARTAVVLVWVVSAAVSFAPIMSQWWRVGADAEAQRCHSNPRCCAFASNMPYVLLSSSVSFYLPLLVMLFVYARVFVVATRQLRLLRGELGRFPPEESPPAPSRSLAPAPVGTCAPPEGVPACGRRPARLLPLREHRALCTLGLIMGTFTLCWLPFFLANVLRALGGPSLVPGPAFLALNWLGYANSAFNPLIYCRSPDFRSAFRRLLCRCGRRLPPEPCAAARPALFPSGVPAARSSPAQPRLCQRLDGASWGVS
Description: as §1

[5] = target: T3, β2-adrenergic receptor (Homo sapiens, UniProt P07550); assay: Functional cellular cAMP (HTRF) assay, CHO cells expressing β2-ARs; assay type: cell-based; conditions: relative to procaterol
T3 construct: expressed in transfected cells; host or cells: CHO
T3 sequence (P07550 whole entry): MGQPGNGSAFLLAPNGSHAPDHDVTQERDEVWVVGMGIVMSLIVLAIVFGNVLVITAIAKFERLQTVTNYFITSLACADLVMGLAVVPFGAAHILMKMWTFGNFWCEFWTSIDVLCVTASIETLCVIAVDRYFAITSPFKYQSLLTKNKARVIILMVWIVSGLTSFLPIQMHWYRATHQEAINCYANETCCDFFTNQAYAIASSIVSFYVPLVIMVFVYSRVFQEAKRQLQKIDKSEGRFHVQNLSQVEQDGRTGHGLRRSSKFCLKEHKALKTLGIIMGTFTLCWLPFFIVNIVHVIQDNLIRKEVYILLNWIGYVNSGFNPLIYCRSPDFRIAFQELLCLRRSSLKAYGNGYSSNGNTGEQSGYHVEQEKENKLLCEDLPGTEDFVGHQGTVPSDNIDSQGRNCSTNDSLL
Description: as §1

[6] = tested on: mice with induced myocardial infarction; assay: Post-MI chronic heart failure in mice, invasive hemodynamics with isoproterenol; assay type: in vivo, mouse; conditions: 4 weeks of treatment
Text: as §2, §3
Invasive Measurements: The hemodynamic measurements occurred at the end of the study as described in the protocols above. […] Hemodynamic measurements were collected and analyzed for cardiac function.
The maximum (dp/dt max) rate of pressure change during contraction and minimum (dp/dt min) rate of pressure change during relaxation of the left ventricle were measured with increasing doses of isoproterenol in combination with vibegron. […]

O=C(Nc1ccc(C[C@@H]2CC[C@H]([C@H](O)c3ccccc3)N2)cc1)[C@@H]1CCc2nccc(=O)n21 [Vibegron, (6S)—N-[4-[[(2S,5R)-5-[(R)-hydroxy(phenyl)methyl]pyrrolidin-2-yl]methyl]phenyl]-4-oxo-7,8-dihydro-6H-pyrrolo[1,2-a]pyrimidine-6-carboxamide]
Selectivity for activation of β3-AR over β2-AR and β1-AR [1]: > 9,000 fold
β1-adrenergic activity (% Activity) [2]: 0%
Amount of healthy myocardium after infarction (trichrome stain) ([3]; MI mice, 4 weeks of treatment, versus vehicle, FIGS. 5A-5F): increases the amount of healthy myocardium after infarction
Average % Infarcted Myocardium ([3]; MI mice, high dose (10 mg/kg)): 7.68%
Average Left Ventricle Lumen Area ([3]; MI mice, high dose (10 mg/kg)): 75,061 AU
Average % Infarcted Myocardium ([3]; MI mice, low dose (1 mg/kg)): 21.79%
Average Left Ventricle Lumen Area ([3]; MI mice, low dose (1 mg/kg)): 170,789 AU
Average % Infarcted Myocardium ([3]; MI mice, medium dose (3 mg/kg)): 18.85%
Average Left Ventricle Lumen Area ([3]; MI mice, medium dose (3 mg/kg)): 72,474 AU
Adverse effects in healthy hearts (LV lumen area, infarcted myocardium) ([3]; sham mice, high dose): no adverse effects
Average Left Ventricle Lumen Area ([3]; sham mice, high dose (10 mg/kg)): 46,167 AU
β3-adrenergic activity relative to isoproterenol (% Activity) ([4]; 10 μM, HEK293 cells): 104%
Emax ([4]; HEK293, estimated by nonlinear least-squares regression, read-out: Emax (maximum response) at the β3-AR): 99.2%
EC50 ([4]; HEK293 cells expressing β3-ARs, cAMP, read-out: Mean (SEM) EC50 at the β3-AR): 2.13 nM
Emax (maximum response) at the β3-AR ([4]; estimated by nonlinear least-squares regression): ~100%
Potency at activating β3-ARs relative to mirabegron ([4]; ratio of mean EC50 values): approximately 5 times
β2-adrenergic activity (% Activity) [5]: 2%
Maximum rate of pressure change (dp/dt max) during left ventricle contraction ([6]; increasing doses of isoproterenol, FIG. 4A): increased
Minimum rate of pressure change (dp/dt min) during left ventricle relaxation ([6]; increasing doses of isoproterenol, FIG. 4B): decreased
Change in heart rate with increasing doses of isoproterenol ([6]; versus mice not receiving vibegron, FIG. 4C): higher increase in heart rate
